The results in this text go back to ChEMBL document CHEMBL1201862, “PubChem BioAssay data set” (2004).

Holding throughout (assay): inhibition of tumour cell growth, NCI panel, 48 h
The test system of assay [1] is HT-29.
In assay [2] the test system is KM12.
The test system of assay [3] is SF-295.
Assay [4] has as its system A549.
Assay [5] concerns M14.
Assay [6] relates to SK-MEL-5.
The test system of assay [7] is SF-268.
In assay [8] the test system is Malme-3M.
The test system of assay [9] is SK-MEL-28.
Assay [10] concerns SF-539.
The subject of assay [11] is OVCAR-3.
Assay [12] deals with NCI-H226.
Assay [13] concerns UACC-62.
In assay [14] the test system is SNB-19.
Assay [15] concerns HCT-15.
Assay [16] deals with OVCAR-8.
In assay [17] the test system is KM-20L2.
In assay [18] the test system is MDA-N.
The test system of assay [19] is BT-549.
Assay [20] concerns T47D.

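Five compound concentrations were applied to cells in 96-well plates for 48 hours; endpoints were derived by simple linear interpolation of the resulting dose-response curve. GI50: concentration for 50% inhibition of growth.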 The source made the active and inactive calls. Cut-off read from the data, not from the text of the source: active = GI50 up to about 1.1 µM and inactive = higher.

For the compound `CC(=O)O[C@H]1C(=O)[C@@]2(C)C(C(OC(=O)c3ccccc3)[C@]3(O)CC(OC(=O)C(O)C(NC(=O)c4ccc(C(F)(F)F)cc4)c4ccccc4)C(C)=C1C3(C)C)[C@]1(OC(C)=O)CO[C@@H]1C[C@@H]2O` (some centres undefined), the GI50 in [1] is 0.0565 µM (active); in [2] it was 0.0611 µM (active); in [3], 0.239 µM (active); in assay [4] it was 0.218 µM (active); in [5] it was 0.0682 µM (active); in assay [6] it was 0.0942 µM (active). Also, the GI50 in [7] is 0.157 µM (active); in assay [8], 0.109 µM (active); in [9], 0.128 µM (active); in assay [10], 0.166 µM (active); in assay [11], 0.0757 µM (active); in assay [12], 0.0977 µM (active). In addition, the GI50 is 0.0723 µM (active) in assay [13]; 0.861 µM (active) in assay [14]; 4.97 µM in assay [15]; 0.161 µM (active) in [16]; 0.0767 µM (active) in assay [17].
Turning to `O=C(/C=C(\O)C(=O)O)/C=C(\O)c1ccccc1Cl`, the GI50 in [1], in [2], in assay [3], in assay [4], in [5] and in [6] was > 100 µM (inactive) throughout. For the same compound, the GI50 in assay [7], in [8], in assay [9], in [10], in assay [11] and in [12] was > 100 µM (inactive) each time. Besides, the GI50 in assay [13] is > 100 µM (inactive); in [14] it was > 100 µM (inactive); in assay [15], more than 100 µM; in assay [16], > 100 µM (inactive); in assay [17], > 100 µM (inactive).
Consider `CCC[S+]([O-])c1nc(COC(=O)NC)c(COC(=O)NC)n1C` (centres undefined), for which the GI50 in assay [1], in assay [2], in assay [3], in [4], in assay [5] and in assay [6] was > 100 µM (inactive) in each case. Further, the GI50 in assay [7], in assay [8], in assay [9], in [10], in assay [11] and in assay [12] was > 100 µM (inactive) each time. The GI50 was > 100 µM (inactive) in assay [13]; > 100 µM (inactive) in assay [14]; more than 100 µM in assay [15]; > 100 µM (inactive) in [16]; > 100 µM (inactive) in assay [17].
As for `COC1C(C)OC(OC2CC(C)(O)Cc3cc4c(c(O)c32)C(=O)c2c(O)cc3c(c2C4=O)OC2OC3(C)C(O)C(N(C)C)C2O)C(OC)C1(C)OC` (centres undefined), the GI50 in assay [1] is 0.0243 µM (active); in [18], 0.00053 µM (active); in assay [2], 0.00527 µM (active); in [3] it was 0.0047 µM (active); in assay [4], 0.00498 µM (active); in [19], 0.000257 µM (active). In addition, the GI50 is 0.00479 µM (active) in assay [5]; 0.0237 µM (active) in assay [6]; 0.00484 µM (active) in assay [7]; 0.0561 µM (active) in assay [8]; 0.00557 µM (active) in assay [9]; 0.00348 µM (active) in assay [10]. In addition, the GI50 in assay [11] was 0.00516 µM (active); in assay [12] it was 0.0508 µM (active); in assay [20] it was 0.029 nM (active); in assay [13], 0.016 µM (active); in assay [14] it was 0.00378 µM (active); in assay [15], 0.00849 µM. Further, the GI50 in assay [16] was 0.00496 µM (active); in assay [17], 0.0299 µM (active).
For `CC/C(CC(=O)CCC(=O)Nc1ccc(C)c(C)c1)=N\NC(=O)C(N)=O`, the GI50 in assay [1], in assay [3], in [4], in assay [5], in assay [6] and in assay [7] was > 100 µM (inactive) in each case. The GI50 in [8], in [9], in assay [10], in assay [11], in [12] and in [13] was > 100 µM (inactive) in each case. Moreover, the GI50 in [14] was > 100 µM (inactive); in assay [15] it was more than 100 µM; in assay [16] it was > 100 µM (inactive); in assay [17], > 100 µM (inactive).
For `CCOC(=O)CCC1(C(=O)OCC)CCCC1=O` (centres undefined), the GI50 in [1], in [2], in assay [3], in assay [4], in assay [5] and in assay [6] was > 100 µM (inactive) in each case. Moreover, the GI50 in assay [7], in assay [8], in assay [9], in assay [10], in [11] and in assay [12] was > 100 µM (inactive) in each case. Also, the GI50 is > 100 µM (inactive) in assay [13]; > 100 µM (inactive) in assay [14]; 78.3 µM in assay [15]; > 100 µM (inactive) in assay [16]; > 100 µM (inactive) in assay [17].
As to `C=CCNC(=O)/C=C\C(=O)O`, the GI50 in assay [1], in [2], in assay [3], in assay [4], in assay [5] and in assay [6] was > 100 µM (inactive) in each case. Moreover, the GI50 in assay [7], in assay [8], in [9], in assay [10], in assay [11] and in assay [12] was > 100 µM (inactive) in each case. Also, the GI50 in [13] was > 100 µM (inactive); in assay [14], > 100 µM (inactive); in assay [15], more than 100 µM; in assay [16] it was > 100 µM (inactive); in [17], > 100 µM (inactive).
With `CC1CC(C)C2OC2(C)C[C@H](C)C(=O)NC(C)C(=O)N(C)[C@H](Cc2c(Br)[nH]c3ccccc23)C(=O)N[C@@H](c2ccc(O)cc2)CC(=O)O1` (some centres undefined), the GI50 is 0.106 µM (active) in assay [1]; 0.249 µM (active) in [2]; 1.22 µM (inactive) in assay [3]; 0.28 µM (active) in [4]; 0.729 µM (active) in assay [5]; 0.0933 µM (active) in [6]. For the same compound, the GI50 was 0.336 µM (active) in [7]; 0.527 µM (active) in assay [8]; 0.839 µM (active) in assay [9]; 0.111 µM (active) in assay [10]; 0.49 µM (active) in assay [11]; 0.373 µM (active) in [12]. For the same compound, the GI50 was 2.5 µM (inactive) in assay [13]; 0.0661 µM (active) in assay [14]; 39.3 µM in [15]; 4.89 µM (inactive) in assay [16]; 0.15 µM (active) in assay [17].
On to `Cc1ccc2nc3cc(C)c(=O)cc-3sc2c1`, for which the GI50 in assay [1] was > 100 µM (inactive); in assay [2], 54.1 µM (inactive); in assay [3], 94.2 µM (inactive); in assay [4] it was 53.5 µM (inactive); in assay [5], > 100 µM (inactive); in assay [6] it was 44.9 µM (inactive). In addition, the GI50 in assay [7] was 81.1 µM (inactive); in [8], > 100 µM (inactive); in assay [9] it was > 100 µM (inactive); in assay [10], > 100 µM (inactive); in assay [11], > 100 µM (inactive); in assay [12], 73.1 µM (inactive). The GI50 in [13] is 28.7 µM (inactive); in assay [14], > 100 µM (inactive); in assay [15] it was 52.8 µM; in assay [16], 56 µM (inactive); in assay [17], > 100 µM (inactive).
On to `CS(=O)(=O)N(CCC#N)c1ccc(C=O)cc1`, for which the GI50 in assay [1], in assay [2], in assay [3], in assay [4], in assay [5] and in assay [6] was > 100 µM (inactive) in each case. Further, the GI50 in assay [7], in [8], in assay [9], in assay [10], in assay [11] and in [12] was > 100 µM (inactive) each time. The GI50 in assay [13] was > 100 µM (inactive); in assay [14], > 100 µM (inactive); in assay [15], more than 100 µM; in assay [16] it was > 100 µM (inactive); in [17], > 100 µM (inactive).
Regarding `CCc1nc2ccccc2c(=O)n1/N=C(\N=N\c1ccc(Cl)cc1)c1ccccc1`, the GI50 was 15.7 µM (inactive) in [1]; 18.2 µM (inactive) in [2]; 25 µM (inactive) in [3]; 23.3 µM (inactive) in assay [4]; 34.2 µM (inactive) in assay [5]; 18.4 µM (inactive) in [6]. Further, the GI50 was 17.3 µM (inactive) in assay [7]; 38.6 µM (inactive) in assay [8]; 32 µM (inactive) in assay [9]; 22.5 µM (inactive) in [10]; 20.7 µM (inactive) in assay [11]; 21.8 µM (inactive) in [12]. Moreover, the GI50 in assay [13] was 30.8 µM (inactive); in assay [14] it was 23.4 µM (inactive); in assay [15] it was 39.6 µM; in [16], 35.2 µM (inactive); in [17], 14 µM (inactive).
